# Molecular target: Mcl-1 protein (UniProtKB Q07820) (Homo sapiens (Human), UniProt Q07820)
# Test: Inhibition of Mcl-1 by the fluorescence polarisation assay (Example A, Method A)
# Type: binding
# Conditions: fluorescence polarization assay
# Experimental: The relative binding potency of each compound was determined via Fluorescence Polarisation (FP). The method utilised a Fluorescein labelled ligand (Fluorescein-βAla-Ahx-A-REIGAQLRRMADDLNAQY-OH; MW 2,765) which binds to the Mcl-1 protein (such that Mcl-1 corresponds to the UniProtKB® primary accession number: Q07820) leading to an increased anisotropy measured in milli-polarisation (mP) units using a reader. The addition of a compound which binds competitively to the same site as the ligand will result in a greater proportion of unbound ligand in the system indicated by a decrease in mP units.
# An 11 point serial dilution of each compound was prepared in DMSO and 2 μl transferred into flat bottomed, low binding, 384-well plate (final DMSO concentration 5%). 38 μl of buffer containing the Fluorescein labelled ligand (final concentration 1 nM) and Mcl-1 protein (final concentration 5 nM) was then added. Buffer components were 10 mM 4-(2-hydroxyethyl)-1-piperazineethanesulfonic acid [HEPES], 150 mM NaCl, pH 7.4 with the addition of 0.05% Tween 20.
# Assay plates were incubated for 2 hours at room temperature before FP was measured on a […] Synergy Neo reader ([…], Cut off 510 nm) and mP units calculated. The binding of increasing doses of test compound was expressed as a percentage reduction in mP compared to a window established between ‘5% DMSO only’ and ‘100% inhibition’ controls. 11-point dose response curves were plotted with XL-Fit software using a 4-Parameter Logistic Model (Sigmoidal Dose-Response Model) and the inhibitory concentrations that gave a 50% reduction in mP (IC50) were determined. The Ki values were determined from the IC50 values according to Cer et al, Nucleic Acids Res, 2009, 37 (WebServer issue): W441-W445. Inhibition constants (Ki) are determined from complete binding inhibition curves (cKi) or from estimated from incomplete binding inhibition curves (eKi) in most cases due to low activity.
# Mcl-1 protein, sequence (Q07820 whole entry): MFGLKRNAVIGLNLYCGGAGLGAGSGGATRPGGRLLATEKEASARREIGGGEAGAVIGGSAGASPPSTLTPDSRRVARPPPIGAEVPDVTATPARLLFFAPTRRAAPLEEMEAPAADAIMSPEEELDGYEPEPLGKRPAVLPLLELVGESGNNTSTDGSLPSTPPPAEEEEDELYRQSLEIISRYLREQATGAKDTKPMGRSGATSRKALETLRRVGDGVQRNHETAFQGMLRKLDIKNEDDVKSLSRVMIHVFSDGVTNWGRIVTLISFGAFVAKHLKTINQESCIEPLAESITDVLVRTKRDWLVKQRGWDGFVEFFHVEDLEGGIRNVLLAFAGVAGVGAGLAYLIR
row,Structure (SMILES),Ki [nM]
1,"O=C(O)[C@]1(Nc2cccc(Cl)c2)CC[C@@]2(CC1)c1ccccc1CC2CCCOc1ccnc2c1CCCC2F (stereo partly shown) [Example 473, (1r,4r)-4-(3-chloroanilino)-2′-{3-[(8-fluoro-5,6,7,8-tetrahydroquinolin-4-yl)oxy]propyl}-2′,3′-dihydrospiro[cyclohexane-1,1′-indene]-4-carboxylic acid]",81.9
2,"O=C(O)C1(Nc2cccc(Br)c2)CCC2(CC1)c1ccccc1CC2c1cccc(Cl)c1 (stereo not shown) [Example 221, 4-(3-bromoanilino)-2′-(3-chlorophenyl)-2′,3′-dihydrospiro[cyclohexane-1,1′-indene]-4-carboxylic acid]",995
3,"O=C(O)[C@]1(Nc2cccc(Br)c2)CC[C@@]2(CC1)C(C#CCOc1ccccc1)=Cc1ccccc12 [Example 165, (1r,4r)-4-(3-bromoanilino)-2′-(3-phenoxyprop-1-yn-1-yl)spiro[cyclohexane-1,1′-indene]-4-carboxylic acid]",90400
4,"Cc1cncn(CCCC2Cc3ccccc3[C@]23CC[C@@](Nc2cccc(Cl)c2)(C(=O)O)CC3)c1=O (stereo partly shown) [Example 183, (1r,4r)-4-(3-chloroanilino)-2′-[3-(5-methyl-6-oxopyrimidin-1 (6H)-yl)propyl]-2′,3′-dihydrospiro[cyclohexane-1,1′-indene]-4-carboxylic acid]",2480
5,"O=C(O)[C@]1(Nc2cccc(Cl)c2)CC[C@@]2(CC1)c1ccccc1CC2CCCC1CCCC1 (stereo partly shown) [Example 153, (1r,4r)-4-(3-chloroanilino)-2′-(3-cyclopentylpropyl)-2′,3′-dihydrospiro[cyclohexane-1,1′-indene]-4-carboxylic acid]",507
6,"O=C(O)[C@]1(Nc2cccc(Cl)c2)CC[C@@]2(CC1)c1ccccc1CC2CCOc1ccnc(F)c1 (stereo partly shown) [Example 187, (1r,4r)-4-(3-chloroanilino)-2′-{2-[(2-fluoropyridin-4-yl)oxy]ethyl}-2′,3′-dihydrospiro[cyclohexane-1,1′-indene]-4-carboxylic acid]",271
7,"O=C(O)[C@]1(Nc2cccc(Cl)c2)CC[C@]2(CC1)C(C1CC1)=Cc1ccccc12 [Example 90, (1r,4r)-4-(3-chloroanilino)-2′-cyclopropylspiro[cyclohexane-1,1′-indene]-4-carboxylic acid]",2150
8,"O=C(O)C1(Nc2cccc(Br)c2)CCC2(CC1)CNc1ccccc12 (stereo not shown) [Example 3, 4-(3-bromoanilino)-1′,2′-dihydrospiro[cyclohexane-1,3′-indole]-4-carboxylic acid]",12800
9,"COc1cc(OC)cc(C2=Cc3ccccc3[C@]23CC[C@@](Nc2cccc(Cl)c2)(C(=O)O)CC3)c1 [Example 308, (1s,4s)-4-(3-chloroanilino)-2′-(3,5-dimethoxyphenyl)spiro[cyclohexane-1,1′-indene]-4-carboxylic acid]",2930
10,"COc1ccc2c(c1)[C@]1(CC[C@@](Nc3cccc(Cl)c3)(C(=O)O)CC1)C1(CCCC1)C2 [Example 89, (1r,4r)-4-(3-chloroanilino)-6′-methoxy-3′H-dispiro[cyclohexane-1,1′-indene-2′,1″-cyclopentane]-4-carboxylic acid]",2120
11,"Cc1cccc(CCOCC2=Cc3ccccc3[C@]23CC[C@@](Nc2cccc(Cl)c2)(C(=O)O)CC3)c1 [Example 411, (1s,4s)-4-(3-chloroanilino)-2′-{[2-(3-methylphenyl)ethoxy]methyl}spiro[cyclohexane-1,1′-indene]-4-carboxylic acid]",583
12,"Cc1cnccc1OCCC1=Cc2ccccc2[C@]12CC[C@@](Nc1cccc(Cl)c1)(C(=O)O)CC2 [Example 189, (1r,4r)-4-(3-chloroanilino)-2′-{2-[(3-methylpyridin-4-yl)oxy]ethyl}spiro[cyclohexane-1,1′-indene]-4-carboxylic acid]",121
13,"O=C(O)[C@]1(Nc2cccc(Cl)c2)CC[C@]2(CC1)C(c1ccsc1)=Cc1ccccc12 [Example 330, (1s,4s)-4-(3-chloroanilino)-2′-(thiophen-3-yl)spiro[cyclohexane-1,1′-indene]-4-carboxylic acid]",2120
14,"O=C(O)[C@]1(Nc2cccc(Cl)c2)CC[C@]2(CC1)C(Br)=Cc1cc(Cl)ccc12 [Example 135, (1s,4s)-2′-bromo-5′-chloro-4-(3-chloroanilino)spiro[cyclohexane-1,1′-indene]-4-carboxylic acid]",200
15,"O=C(O)[C@]1(Nc2cccc(Cl)c2)CC[C@]2(CC1)C(c1cccc(OC(F)(F)F)c1)=Cc1ccccc12 [Example 314, (1s,4s)-4-(3-chloroanilino)-2′-[3-(trifluoromethoxy)phenyl]spiro[cyclohexane-1,1′-indene]-4-carboxylic acid]",528
16,"O=C(O)[C@]1(Nc2cccc(Cl)c2)CC[C@@]2(CC1)c1ccccc1CC2c1ccccc1 (single isomer, unassigned) [Example 328, (1r,4r)-4-(3-chloroanilino)-2′-phenyl-2′,3′-dihydrospiro[cyclohexane-1,1′-indene]-4-carboxylic acid]",677
17,"O=C(O)[C@]1(Nc2cccc(Cl)c2)CC[C@]2(CC1)C(C1=CCN(Cc3ccccc3)CC1)=Cc1ccccc12 [Example 360, (1r,4r)-2′-(1-benzyl-1,2,3,6-tetrahydropyridin-4-yl)-4-(3-chloroanilino)spiro[cyclohexane-1,1′-indene]-4-carboxylic acid]",17500
18,"Cc1cncn(CCCC2=Cc3ccccc3[C@]23CC[C@@](Nc2cccc(Cl)c2)(C(=O)O)CC3)c1=O [Example 182, (1r,4r)-4-(3-chloroanilino)-2′-[3-(5-methyl-6-oxopyrimidin-1 (6H)-yl)propyl]spiro[cyclohexane-1,1′-indene]-4-carboxylic acid]",1620
19,"CC1=Nc2ccccc2[C@]12CC[C@](Nc1cccc(Br)c1)(C(=O)O)CC2 [Example 22, (1r,4r)-4-(3-bromoanilino)-2′-methylspiro[cyclohexane-1,3′-indole]-4-carboxylic acid]",24100
20,"O=C(O)[C@]1(Nc2cccc(Cl)c2)CC[C@]2(CC1)C(c1cccc(Cl)c1)=Cc1ccccc12 [Example 334, (1s,4s)-4-(3-chloroanilino)-2′-(3-chlorophenyl)spiro[cyclohexane-1,1′-indene]-4-carboxylic acid]",2000
21,"O=C(O)[C@]1(Nc2cccc(Cl)c2)CC[C@]2(CC1)C(c1ccccc1)=Cc1ccccc12 [Example 305, (1s,4s)-4-(3-chloroanilino)-2′-phenylspiro[cyclohexane-1,1′-indene]-4-carboxylic acid]",663
22,"C[C@H](COc1ccnc2ccsc12)CC1Cc2ccccc2[C@]12CC[C@@](Nc1cccc(Cl)c1)(C(=O)O)CC2 (stereo partly drawn) [Example 592, (1r,4S)-4-(3-chloroanilino)-2′-{(2S)-2-methyl-3-[(thieno[3,2-b]pyridin-7-yl)oxy]propyl}-2′,3′-dihydrospiro[cyclohexane-1,1′-indene]-4-carboxylic acid]",710
23,"O=C(O)[C@]1(Nc2cccc(Cl)c2)CC[C@]2(CC1)C(c1cccc(Oc3ccccc3)c1)=Cc1ccccc12 [Example 300, (1s,4s)-4-(3-chloroanilino)-2′-(3-phenoxyphenyl)spiro[cyclohexane-1,1′-indene]-4-carboxylic acid]",174
24,"C=CCOC1Cc2ccccc2[C@]12CC[C@@](Nc1cccc(Cl)c1)(C(=O)O)CC2 (stereo partly shown) [Example 122, (1s,4s)-4-(3-chloroanilino)-2′-[(prop-2-en-1-yl)oxy]-2′,3′-dihydrospiro[cyclohexane-1,1′-indene]-4-carboxylic acid]",3770
25,"COc1ccc(C2Cc3ccccc3[C@]23CC[C@@](Nc2cccc(Cl)c2)(C(=O)O)CC3)c(Cl)c1 (single isomer, unassigned) [Example 269, (1r,4r)-4-(3-chloroanilino)-2′-(2-chloro-4-methoxyphenyl)-2′,3′-dihydrospiro[cyclohexane-1,1′-indene]-4-carboxylic acid]",11100
26,"O=C(O)[C@]1(Nc2cccc(Cl)c2)CC[C@]2(CC1)C(c1cc3c(-c4ccncc4)cccc3o1)=Cc1ccccc12 [Example 361, (1s,4s)-4-(3-chloroanilino)-2′-[4-(pyridin-4-yl)-1-benzofuran-2-yl]spiro[cyclohexane-1,1′-indene]-4-carboxylic acid]",14800
27,"COc1cccc([C@H]2Cc3ccccc3[C@]23CC[C@@](Nc2cccc(Br)c2)(C(=O)O)CC3)c1 [Example 220, (1r,2′R,4R)-4-(3-bromoanilino)-2′-(3-methoxyphenyl)-2′,3′-dihydrospiro[cyclohexane-1,1′-indene]-4-carboxylic acid]",7230
28,"O=C(O)[C@]1(Nc2cccc(Cl)c2)CC[C@]2(CC1)C(C1CN(Cc3c(F)ccc(F)c3F)C1)=Cc1ccccc12 [Example 99, (1r,4r)-4-(3-chloroanilino)-2′-{1-[(2,3,6-trifluorophenyl)methyl]azetidin-3-yl}spiro[cyclohexane-1,1′-indene]-4-carboxylic acid]",2860

# — patent publication US20240150293A1, “SPIROCYCLOHEXANE DERIVATIVES, PHARMACEUTICAL COMPOSITIONS CONTAINING THEM AND THEIR USES AS ANTI-APOPTOTIC INHIBITORS” (LES LABORATOIRES SERVIER, priority 2021, published 2024)
